In patent US5089504A, “Substituted 4-aminoquinoline derivatives as gastric acid secretion inhibitors” (SmithKline Beckman Intercredit B.V., priority 1988, dated 1992):
Structures can show the parent of a compound that is named as a salt.

Tests used:
[1] = target: T1, gastrointestinal H^+ K^+ ATPase (Sus scrofa, UniProt P19156); assay: K+-stimulated ATPase activity in lyophilized gastric vesicles (H/K-ATPase); format: biochemical; details: lyophilized pig gastric vesicles, 37° C.; for IC50: K+-stimulated ATPase activity, pH 7.0, 30 minutes
T1 construct: Lyophilized gastric vesicles were prepared from pig fundic mucosa; from tissue; host or cells: pig fundic mucosa (lyophilized gastric vesicles)
Method: The effects of a single high concentration (100 μM) of a compound of structure (I) on K-stimulated ATPase activity in lyophilized gastric vesicles was determined. Preferred compounds of structure (I) were also tested over a range of concentrations to determine IC50 values. Lyophilized gastric vesicles were prepared from pig fundic mucosa after the method of Keeling et. al. (Biochem. Pharmacol., 34, 2967, 1985). K^+ -stimulated ATPase activity was determined at 37° C. in the presence of the following : 10 mM Pipes/Tris buffer pH 7.0, 2 mM MgSO4, 1 mM KCl, 2 mM Na2 ATP and 3-6 μg protein/ml lyophilized gastric vesicles. After incubation for 30 minutes, the inorganic phosphate hydrolyzed from ATP was determined by the method of Yoda and Hokin (Biochem. Biophys. Res. Commun. 40, 880, 1970). Compounds of structure (I) were dissolved in dimethylsulphoxide which up to the highest concentration used had no effect on K^+ -stimulated ATPase activity. The effect of the highest concentration of each compound of structure (I) on the recovery of a standard amount of inorganic phosphate was also determined.

[2] = tested on: pentagastrin stimulated gastric acid secretion; assay: Rat lumen perfused stomach (pentagastrin stimulated gastric acid secretion); format: in vivo; details: iv, 10 μmole/kg
Text: B. Rat Lumen Perfused Stomach ([…] stimulated […] secretion) Using a modification of the procedure described by Ghosh & Schild (Br. J. Pharmacology, 13, 54, 1958), the compounds of the following examples were found on i.v. administration at a concentration of 10 μmole/kg to cause an inhibition of pentagastrin stimulated gastric acid secretion as follows: […]

T1 sequence (P19156 2-1034 limits assumed): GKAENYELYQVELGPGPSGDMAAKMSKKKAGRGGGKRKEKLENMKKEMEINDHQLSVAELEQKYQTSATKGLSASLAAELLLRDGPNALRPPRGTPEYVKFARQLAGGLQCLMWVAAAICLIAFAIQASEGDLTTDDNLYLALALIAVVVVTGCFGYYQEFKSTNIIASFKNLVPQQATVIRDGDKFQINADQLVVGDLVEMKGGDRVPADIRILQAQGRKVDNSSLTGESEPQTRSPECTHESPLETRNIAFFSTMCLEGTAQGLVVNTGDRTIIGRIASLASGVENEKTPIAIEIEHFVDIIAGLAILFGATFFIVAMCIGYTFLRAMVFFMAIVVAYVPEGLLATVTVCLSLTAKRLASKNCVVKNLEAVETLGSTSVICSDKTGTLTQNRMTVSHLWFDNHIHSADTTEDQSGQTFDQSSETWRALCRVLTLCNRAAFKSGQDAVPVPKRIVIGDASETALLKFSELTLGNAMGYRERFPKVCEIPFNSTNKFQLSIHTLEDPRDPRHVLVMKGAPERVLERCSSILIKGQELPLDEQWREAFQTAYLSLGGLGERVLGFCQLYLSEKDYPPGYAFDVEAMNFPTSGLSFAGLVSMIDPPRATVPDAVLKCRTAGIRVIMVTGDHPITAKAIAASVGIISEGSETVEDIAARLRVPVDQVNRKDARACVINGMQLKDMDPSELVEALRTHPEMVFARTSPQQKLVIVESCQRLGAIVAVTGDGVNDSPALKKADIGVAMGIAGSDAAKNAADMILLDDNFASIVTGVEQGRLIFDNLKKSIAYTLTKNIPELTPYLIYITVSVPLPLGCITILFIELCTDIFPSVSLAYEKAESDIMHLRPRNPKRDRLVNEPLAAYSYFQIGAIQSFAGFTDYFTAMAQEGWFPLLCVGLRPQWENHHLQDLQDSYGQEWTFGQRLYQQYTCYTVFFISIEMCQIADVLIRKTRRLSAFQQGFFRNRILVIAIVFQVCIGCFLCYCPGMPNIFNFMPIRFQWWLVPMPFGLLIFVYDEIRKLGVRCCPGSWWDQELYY
T1 sequence (P18434 whole entry partner): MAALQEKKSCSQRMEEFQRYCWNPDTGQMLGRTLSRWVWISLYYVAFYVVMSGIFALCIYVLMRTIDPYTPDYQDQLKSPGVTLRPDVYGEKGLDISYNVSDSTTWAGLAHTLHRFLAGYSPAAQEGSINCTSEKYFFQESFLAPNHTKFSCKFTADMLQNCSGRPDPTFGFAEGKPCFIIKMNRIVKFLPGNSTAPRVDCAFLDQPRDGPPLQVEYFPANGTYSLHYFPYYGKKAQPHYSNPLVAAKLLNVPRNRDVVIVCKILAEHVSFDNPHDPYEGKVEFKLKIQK

Structure (SMILES) | IC50 [1] [nM] | % inhibition of K+-stimulated ATPase activity (printed in IC50 column as % @ 100) ([1]; @ 100 (μM), pH 7.0) [%] | inhibition in vivo at 10 µmol/kg [2] [%]
CCCC(=O)c1cnc2c(C(C)O)cccc2c1Nc1ccccc1C (stereo not shown) [Example 4, 3-butyryl-4-(2-methylphenylamino)-8-(1-hydroxyethyl)quinoline] | 360 |  | 63
CCCC(=O)c1cnc2cc(CO)ccc2c1Nc1ccccc1C [Example 6, 3-butyryl-4-(2-methylphenylamino)-7-hydroxymethylquinoline] |  | 44 | 
CCCC(=O)c1cnc2c(OCCOC)cccc2c1Nc1ccccc1C [Example 2, 3-butyryl-4-(2-methylphenylamino)-8-(2-methoxyethoxy)quinoline] | 2500 |  | 67
Cc1cc(F)ccc1Nc1c(C(=O)C(C)C)cnc2c(CO)cccc12 [Example 8, 3-isobutyryl-4-(4-fluoro-2-methylphenylamino)-8-(hydroxymethyl)quinoline] | 2100 |  | 76
CCCC(=O)c1cnc2c(CO)cccc2c1Nc1ccccc1C [Example 1, 3-butyryl-4-(2-methylphenylamino)-8-(hydroxymethyl)quinoline] | 840 |  | 61
CCCC(=O)c1cnc2c(CO)cccc2c1Nc1ccc(O)cc1C [Example 3, 3-butyryl-4-(4-hydroxy-2-methylphenylamino)-8-(hydroxymethyl)quinoline hydrochloride] | 180 |  | 88
CCCC(=O)c1cnc2c(OCCO)cccc2c1Nc1ccccc1C [Example 10, 3-butyryl-4-(2-methylphenylamino)-8-(2-hydroxyethoxy)quinoline] | 2400 |  | 68
Cc1ccccc1Nc1c(C(=O)C(C)C)cnc2c(CO)cccc12 [Example 7, 3-isobutyryl-4-(2-methylphenylamino)-8-(hydroxymethyl)quinoline] | 820 |  | 74
CCCC(=O)c1cnc2c(CO)cccc2c1Nc1ccc(F)cc1C [Example 9, 3-butyryl-4-(4-fluoro-2-methylphenylamino)-8-(hydroxymethyl)quinoline] | 2200 |  | 55
CCCC(=O)c1cnc2ccc(CO)cc2c1Nc1ccccc1C [Example 5, 3-butyryl-4-(2-methylphenylamino)-6-hydroxymethylquinoline] | 4400 |  | 46

Continued, in another order:

IC50 [1] [nM] | % inhibition of K+-stimulated ATPase activity (printed in IC50 column as % @ 100) ([1]; @ 100 (μM), pH 7.0) [%] | Structure (SMILES) | inhibition in vivo at 10 µmol/kg [2] [%]
2400 |  | CCCC(=O)c1cnc2c(OCCOCCOCCO)cccc2c1Nc1ccccc1C [Example 12, 3-butyryl-4-(2-methylphenylamino)-8-(2-(2-(2-hydroxyethoxy)ethoxy)ethoxy)quinoline] | 57
40 |  | Cc1cc(O)ccc1Nc1c(C(=O)C(C)C)cnc2c(CO)cccc12 [Example 16, 3-isobutyryl-4-(4-hydroxy-2-methylphenylamino)-8-(hydroxymethyl)quinoline hydrochloride] | 91
2100 |  | CCCC(=O)c1cnc2c(OCCOCCO)cccc2c1Nc1ccccc1C [Example 11, 3-butyryl-4-(2-methylphenylamino)-8-(2-(2-hydroxyethoxy)ethoxy)quinoline] | 77
60 |  | CCCC(=O)c1cnc2c(C(C)O)cccc2c1Nc1ccc(O)cc1C (stereo not shown) [Example 15, 3-butyryl-4-(4-hydroxy-2-methylphenylamino)-8-(1-hydroxyethyl)quinoline] | 70
4000 |  | CCCC(=O)c1cnc2c(OCCOCCO)cccc2c1Nc1ccc(F)cc1C [Example 13, 3-butyryl-4-(4-fluoro-2-methylphenylamino)-8-(2-(2-hydroxyethoxy)ethoxy)quinoline] | 49
2700 |  | CCCC(=O)c1cnc2c(OCCO)cccc2c1Nc1ccc(F)cc1C [Example 14, 3-butyryl-4-(4-fluoro-2-methylphenylamino)-8-(2-hydroxyethoxy)quinoline] | 79
